Columns and labels:
Format in all cases: physicochemical
[1] = Influencing factor experiments (light, high temperature, high humidity, 30 days)
Method: Crystal forms A, B, D and F of the compound of formula (I) were spread and left open to the air, and under conditions of high temperature (40° C. and 60° C.), light (4500 Lux), high humidity (RH 75% and RH 90%), the stability thereof were investigated for a period of 30 days.

[2] = DVS (dynamic vapor sorption) hygroscopicity characterization; conditions: for mass increase under normal conditions: 25° C. and 60% RH; for hygroscopicity according to guidelines for drug hygroscopicity test in China Pharmacopoeia (2015 edition) / mass increase as the humidity increases: 25° C., 10% RH to 80% RH; for mass increase under accelerated test conditions: 70% RH; for mass increase under extreme conditions: 90% RH; for desorption process and adsorption process of the sample: humidity change from 0% to 95%
Method: DVS refers to dynamic vapor sorption and is determined using SMS DVS Advantage at 25° C., with the humidity change of 50%-95%-0%-95%-50% and the stepping of 10% (5% for the last step) (the specific humidity range is determined in accordance with the corresponding plot, and the methods listed herein are those most commonly used), and the standard for determination is as follow: dm/dt is not more than 0.02%, and Tmax is not more than 360 min.

[3] = Long-term and accelerated stability experiments (3 months)
Method: The long-term (25° C., 60% RH) and accelerated (40° C., 75% RH) stability of crystal form A and crystal form F of the compound of formula (I) were investigated for 3 months.

CCC(=O)c1ccc(Cl)cc1-c1cc(=O)n([C@@H](CCOC(C)(C)C)C(=O)Nc2ccc(C(=O)O)cc2)cc1OC [Crystal form A, (S)-4-(4-(tert-butoxy)-2-(4-(5-chloro-2-propionylphenyl)-5-methoxy-2-oxopyridin-1(2H)-yl)butanamido)benzoic acid]
% Purity ([1]; 40° C., 5 days): 98.74% | Color and trait ([1]; 40° C., 5 days): Yellow solid | % Purity ([1]; 40° C., 10 days): 98.70% | Color and trait ([1]; 40° C., 10 days): Yellow solid | % Purity ([1]; 40° C., 30 days): 98.48% | Color and trait ([1]; 40° C., 30 days): Yellow solid | % Purity ([1]; 60° C., 5 days): 98.73% | Color and trait ([1]; 60° C., 5 days): Yellow solid | % Purity ([1]; 60° C., 10 days): 98.68% | Color and trait ([1]; 60° C., 10 days): Yellow solid | % Purity ([1]; 60° C., 30 days): 98.50% | Color and trait ([1]; 60° C., 30 days): Yellow solid | % Purity ([1]; 4500 Lux, 5 days): 98.74% | Color and trait ([1]; 4500 Lux, 5 days): Yellow solid | % Purity ([1]; 4500 Lux, 10 days): 98.74% | Color and trait ([1]; 4500 Lux, 10 days): Yellow solid | % Purity ([1]; 4500 Lux, 30 days): 98.75% | Color and trait ([1]; 4500 Lux, 30 days): Yellow solid | % Purity ([1]; Initial condition, day 0): 98.76% | Color and trait ([1]; Initial condition, day 0): Yellow solid | % Purity ([1]; RH 75%, 5 days): 98.76% | % Weight gain ([1]; RH 75%, 5 days): 1.15% | Color and trait ([1]; RH 75%, 5 days): Yellow solid | % Purity ([1]; RH 75%, 10 days): 98.76% | % Weight gain ([1]; RH 75%, 10 days): 3.30% | Color and trait ([1]; RH 75%, 10 days): Yellow solid | % Purity ([1]; RH 75%, 30 days): 98.76% | % Weight gain ([1]; RH 75%, 30 days): 5.85% | Color and trait ([1]; RH 75%, 30 days): Yellow solid | % Purity ([1]; RH 90%, 5 days): 98.75% | % Weight gain ([1]; RH 90%, 5 days): 3.18% | Color and trait ([1]; RH 90%, 5 days): Yellow solid | % Purity ([1]; RH 90%, 10 days): 98.75% | % Weight gain ([1]; RH 90%, 10 days): 8.14% | Color and trait ([1]; RH 90%, 10 days): Yellow solid | % Purity ([1]; RH 90%, 30 days): 98.76% | % Weight gain ([1]; RH 90%, 30 days): 11.37% | Color and trait ([1]; RH 90%, 30 days): Yellow solid | physical and chemical stability (conclusion) ([1]; light, 40° C., 60° C., 75% RH or 90% RH for 30 days): good physical and chemical stability | mass increase under normal conditions [2]: about 1.156% | hygroscopicity according to guidelines for drug hygroscopicity test in China Pharmacopoeia (2015 edition) [2]: slightly hygroscopic (less than 2% but not less than 0.2%) | mass increase as the humidity increases [2]: about 1.781% | mass increase under accelerated test conditions [2]: about 1.479% | mass increase under extreme conditions [2]: about 2.199% | crystal form before and after DVS detection (XRPD comparison) [2]: unchanged | desorption process and adsorption process of the sample [2]: basically coincide | % Purity 1 month ([3]; 25° C., 60% RH): 98.80% | % Purity 2 months ([3]; 25° C., 60% RH): 98.77% | % Purity 3 months ([3]; 25° C., 60% RH): 98.76% | % Purity Initial condition ([3]; 25° C., 60% RH): 98.79% | % Purity 1 month ([3]; 40° C., 75% RH): 98.79% | % Purity 2 months ([3]; 40° C., 75% RH): 98.75% | % Purity 3 months ([3]; 40° C., 75% RH): 98.74% | % Purity Initial condition ([3]; 40° C., 75% RH): 98.79% | physical and chemical stability (conclusion) ([3]; long-term (25° C., 60% RH) and accelerated (40° C., 75% RH) conditions for 3 months): good physical and chemical stability

CCC(=O)c1ccc(Cl)cc1-c1cc(=O)n([C@@H](CCOC(C)(C)C)C(=O)Nc2ccc(C(=O)O)cc2)cc1OC [Crystal form B, (S)-4-(4-(tert-butoxy)-2-(4-(5-chloro-2-propionylphenyl)-5-methoxy-2-oxopyridin-1(2H)-yl)butanamido)benzoic acid]
% Purity ([1]; 40° C., 15 days): 98.99% | Color and trait ([1]; 40° C., 15 days): Light yellow | % Purity ([1]; 40° C., 30 days): 98.57% | Color and trait ([1]; 40° C., 30 days): Light yellow | % Purity ([1]; 60° C., 15 days): 99.10% | Color and trait ([1]; 60° C., 15 days): Light yellow | % Purity ([1]; 60° C., 30 days): 98.60% | Color and trait ([1]; 60° C., 30 days): Light yellow | % Purity ([1]; 4500 Lux, 15 days): 99.01% | Color and trait ([1]; 4500 Lux, 15 days): Yellow solid | % Purity ([1]; 4500 Lux, 30 days): 98.71% | Color and trait ([1]; 4500 Lux, 30 days): Yellow solid | % Purity ([1]; Initial condition, day 0): 99.65% | Color and trait ([1]; Initial condition, day 0): Light yellow | % Purity ([1]; RH 75%, 15 days): 99.62% | % Weight gain ([1]; RH 75%, 15 days): 6.76% | Color and trait ([1]; RH 75%, 15 days): Light yellow | % Purity ([1]; RH 75%, 30 days): 99.59% | % Weight gain ([1]; RH 75%, 30 days): 8.34% | Color and trait ([1]; RH 75%, 30 days): Light yellow | % Purity ([1]; RH 90%, 15 days): 99.64% | % Weight gain ([1]; RH 90%, 15 days): 14.89% | Color and trait ([1]; RH 90%, 15 days): Light yellow | % Purity ([1]; RH 90%, 30 days): 99.56% | % Weight gain ([1]; RH 90%, 30 days): 19.11% | Color and trait ([1]; RH 90%, 30 days): Light yellow | mass increase under normal conditions [2]: about 1.155% | hygroscopicity according to guidelines for drug hygroscopicity test in China Pharmacopoeia (2015 edition) [2]: slightly hygroscopic (less than 2% but not less than 0.2%) | mass increase as the humidity increases [2]: about 1.968% | mass increase under accelerated test conditions [2]: about 1.530% | mass increase under extreme conditions [2]: about 3.963% | crystal form before and after DVS detection (XRPD comparison) [2]: change to crystal form A | desorption process and adsorption process of the sample [2]: basically coincide

— US11225462B2, “Crystal forms of oxypyridine amide derivative and preparation method therefor” (JIANGSU HENGRUI MEDICINE CO., LTD., priority 2018, dated 2022)
